Measurements reported in patent US20250213603A1, “PHARMACEUTICAL COMPOSITION FOR TREATING CANCER” (SAGA UNIVERSITY, priority 2021, published 2025).

Assays:
[1] = test system: BV173; experiment: Cellular uptake of TRITC-labelled CyD, confocal microscopy; assay type: cell-based; conditions: confocal microscopy (FIG. 6)
Method: The cellular uptake of FA-HP-β-CyD was evaluated as follows.
A leukemia cell line (BV173) was used in this example. The FA-HP-β-CyD synthesized in Example 1 was used.
10 mg HP-β-CyD or FA-HP-β-CyD and 1 mg of TRITC were dissolved in 400 μL of dimethyl sulfoxide (DMSO) with stirring for 24 hours and the solution was then gradually poured into acetone. A precipitate was obtained and was washed with water. This was freeze-dried to prepare TRITC-HP-β-CyD and TRITC-FA-HP-β-CyD.
The cells were then cultured at a cell density of 4×10e5 per well on a 6-well plate and were incubated with […], TRITC-HP-β-CyD, FA-HP-β-CyD, or HP-βCyD at different concentrations. A Zeiss LSM880 confocal microscope was used to observe the cells. Imaris (Zeiss) fluorescent image analysis software was used for analysis.
The Control refers to incubation at the same time as the other exposure groups, but without exposure to an agent. Cell localization was stained by DAPI and the cell membrane was stained with PlasMen Bright Green, and the cellular uptake of TRITC-FA-HP-β-CyD was evaluated using confocal microscopy.

[2] = test system: Ba/F3 P190; experiment: Cell proliferation inhibition, modified MTT assay (Cell Counting Kit-8); assay type: cell-based; conditions: Ba/F3 P190, incubation for 72 hours, average±SD of 3 independent experiments
Method: (§1) The proliferation inhibitory action in leukemia cell lines was evaluated using a modified dimethyl-thiazole-diphenyl-tetrazolium (MTT) assay as follows.
(§2) The hepatocyte line and leukemia cell lines (K562, BV173, Ba/F3 p190, Ba/F3 p210, MYL-R, K562-IMR, and KBM5-STI) were used in this example. The FA-HP-β-CyD synthesized in Example 1 was used.
(§3) The cell viability was evaluated using the trypan blue dye exclusion method. Cell proliferation was evaluated using a Cell Counting Kit-8 (Dojindo, Japan), which is an MTT assay. 2×10^4 of each cell was seeded with 100 μL RPMI1640 medium (Sigma-Aldrich, USA) per well to a flatbottom 96-well plate (Greiner Labortechnik, Hamburg, Germany), and incubation for 72 hours was carried out with exposure to HP-β-CyD and FA-HP-β-CyD at different concentrations (0 mM (control: CT), 0.05 mM, 0.1 mM, 0.25 mM, 0.5 mM, and 1 mM).

[3] = test system: K562; experiment: as above; assay type: cell-based; conditions: K562, incubation for 72 hours, average±SD of 3 independent experiments
Method: as §1, §2, §3

[4] = test system: BV173; experiment: as above; assay type: cell-based; conditions: BV173, incubation for 72 hours, average±SD of 3 independent experiments
Method: as §1, §2, §3

[5] = test system: hepatocyte; experiment: as above; assay type: cell-based; conditions: hepatocyte line, incubation for 72 hours, average±SD of 3 independent experiments
Method: as §1, §2, §3

[6] = test system: KBM5-STI; experiment: as above; assay type: cell-based; conditions: incubation for 72 hours, average±SD of 3 independent experiments
Method: as §1, §2, §3

[7] = test system: MYL-R; experiment: as above; assay type: cell-based; conditions: incubation for 72 hours, average±SD of 3 independent experiments
Method: as §1, §2, §3

[8] = test system: K562-IMR; experiment: as above; assay type: cell-based; conditions: incubation for 72 hours, average±SD of 3 independent experiments
Method: as §1, §2, §3

[9] = test system: Ba/F3 P210; experiment: as above; assay type: cell-based; conditions: Ba/F3 P210, incubation for 72 hours, average±SD of 3 independent experiments
Method: as §1, §2, §3

[10] = test system: A549; experiment: Proliferation inhibitory action on low folate receptor-expressing cells (MTT assay); assay type: cell-based, human; conditions: A549, 2.5-10 mM, 72 hours (FIG. 3)
Method: The proliferation inhibitory action on A549, a low folate receptor-expressing cell, was evaluated as follows.
A human non-small cell lung cancer cell line (A549) was used in this example. The FA-HP-β-CyD synthesized in Example 1 was used.
For cell proliferation, 2×10^4 cells of the […] were seeded with 100 μL DMEM medium (Sigma-Aldrich, USA) per well to a flatbottom 96-well plate (Greiner Labortechnik, Hamburg, Germany), and incubation for 72 hours was carried out with exposure to HP-β-CyD and FA-HP-β-CyD at different concentrations (0 mM (control: CT), 2.5 mM, 5 mM, 7.5 mM, and 10 mM). Evaluation was then carried out using a dimethyl-thiazole-diphenyl-tetrazolium (MTT) assay (Nacalai Tesque, Japan).

[11] = test system: BV173 cells (leukemia cells); experiment: Ventricular invasion mouse model (leukemic invasion of the central nervous system); assay type: in vivo, BRJ mice; conditions: HP-β-CyD 30 mg/kg
Method: Here, the effect of HP-β-CyD and FA-HP-β-CyD on leukemic central nervous system invasion was test by constructing a mouse model.
BRJ mice (female) were anesthetized (intraperitoneal administration (IP) of 100 μL of a triple anesthetic of medetomidine hydrochloride (0.75 mg/kg), mitazolam (4 mg/kg), and butorphanol tartrate (5 mg/kg)), and intrathecal transplantation was carried out, through the right coronal suture at a point 1 mm to the right of the center line defined by the sagittal suture, with a polyethylene stop tube-equipped microsyringe designed to inject BV173 cells (leukemia cells) precisely to a depth of 3 mm using a Hamilton syringe LT type needle tip style pst-3 and 25 gauge.
The FA-HP-β-CyD synthesized in Example 1 was used in this example.
The doses were set at 30 mg/kg for HP-β-CyD and 3 mg/kg for FA-HP-β-CyD by referring to the dose of HP-β-CyD for a mouse model of the hereditary lipid storage disease Niemann-Pick disease type C (NPC) (Int. J. Mol. Sci. 2021, 22, 452. https://doi.org/10.3390/ijms22010452).
(§4) Significant difference was determined as follows. That is, the data were analyzed using a two-sided Student's t-test without a comparison table. A value of P<0.05 was considered to indicate a significant difference.

[12] = test system: K562; experiment: Effect of autophagy inhibition on the cell proliferation inhibitory effect; assay type: cell-based; conditions: 5 mM FA-HP-β-CyD or 15 mM HP-β-CyD, chloroquine, bafilomycin A1 or LY294002 (FIG. 8)
Method: (§5) The effect of autophagy inhibition on the cell proliferation inhibitory effect was evaluated as follows.
(§6) Leukemia cell lines (K562 and BV173) were used in this example. The FA-HP-β-CyD synthesized in Example 1 was used.
(§7) 2×10^5 of each cell with 100 μL RPMI1640 medium (Sigma-Aldrich, USA) was seeded per well to a flatbottom 96-well plate (Greiner Labortechnik, Hamburg, Germany), and treatment was carried out for 2 hours at 37° C. with 5 mM FA-HP-β-CyD and 15 mM HP-β-CyD. Pretreatment was then carried out for 24 hours with the autophagy inhibitors chloroquine (20 μM) (FUJIFILM Wako Pure Chemical Corporation), bafilomycin A1 (1 nM) (Funakoshi), or LY294002 (50 μM) (FUJIFILM Wako Pure Chemical Corporation). Cell proliferation was then evaluated using a Cell Counting Kit-8 (Dojindo, Japan), which is a modified dimethyl-thiazole-diphenyl-tetrazolium (MTT) assay.
(§8) Here, the “CT” in FIG. 8 was evaluated as follows. Thus, 2×10^5 of each cell with 100 μL RPMI1640 medium was seeded per well to a flatbottom 96-well plate and culture was carried out for 2 hours+24 hours as in the exposure groups, but without exposure to the agent or autophagy inhibitor, and this was used as the CT. This CT was compared with the exposure groups.
as §4

[13] = test system: BV173; experiment: as above; assay type: cell-based; conditions: 5 mM FA-HP-β-CyD or 15 mM HP-β-CyD, chloroquine, bafilomycin A1 or LY294002 (FIG. 8)
Method: as §5, §6, §7, §8, §4

With “2-hydroxypropyl-β-cyclodextrin [HP-β-CyD, reference compound]” the cellular uptake [1] was “almost no cellular intake”, the IC50 [2] was 8.04 ± 0.71 mM and the IC50 [3] was 5.65 ± 0.96 mM. It also gave an IC50 [4] of 3.46 ± 0.33 mM, an IC50 [5] of 12.9 ± 2.73 mM and an IC50 [6] of 6.64 ± 0.18 mM. It also gave an IC50 [7] of 8.17 ± 0.15 mM, an IC50 [8] of 3.51 ± 0.12 mM and an IC50 [9] of 9.21 ± 0.054 mM. For the same substance, the “cytotoxic / antitumor activity on A549 low folate receptor-expressing cells” value [10] was “strong cytotoxic activity”, the “survival in two-time administration model compared with one-time administration model” value ([11]; FIG. 14 compared with FIG. 13, FA-HP-β-CyD 3 mg/kg) was “an extension in survival was not observed” and the “P versus the vehicle group (survival)” value ([11]; administered two times, first and second week, FA-HP-β-CyD 3 mg/kg (FIG. 14)) was 0.182. The “P versus the vehicle group (survival)” value ([11]; single administration in the second week, FA-HP-β-CyD 3 mg/kg (FIG. 13)) was 0.0746, the “cell proliferation inhibitory capability on addition of an autophagy inhibitor” value [12] was “such an effect is absent” and the “cell proliferation inhibitory capability on addition of an autophagy inhibitor” value [13] was “such an effect is absent”.
